Assay results: PMC10861881 (Proceedings of the National Academy of Sciences of the …, 2024)
In brackets after ≈: the same amount, converted by molar mass.

Legend:
[1] = system: p-ERK (Tyr202/204) in SNU-16 cells; assay: SNU-16 cellular PD assay, p-ERK HTRF; assay type: cell-based; settings: Homo sapiens, SNU-16, 2 h, read-out: SNU16 PD IC50
ELogD = assay type: physicochemical; settings: pH 7.4
[2] = Thermodynamic solubility FaSSIF/SGF; assay type: physicochemical; settings: thermodynamic from solid
[3] = Plasma protein binding, mouse; assay type: in vitro ADME; settings: pooled plasma
[4] = Plasma protein binding, rat; assay type: in vitro ADME; settings: Sprague-Dawley, pooled plasma
[5] = Plasma protein binding, dog; assay type: in vitro ADME; settings: beagle, pooled plasma
[6] = Plasma protein binding, cynomolgus monkey; assay type: in vitro ADME; settings: pooled plasma
[7] = Plasma protein binding, human; assay type: in vitro ADME; settings: pooled plasma
[8] = Hepatocyte intrinsic clearance, mouse; assay type: in vitro ADME; settings: hepatocytes
[9] = Hepatocyte intrinsic clearance, rat; assay type: in vitro ADME; settings: hepatocytes
[10] = Hepatocyte intrinsic clearance, dog; assay type: in vitro ADME; settings: hepatocytes
[11] = Hepatocyte intrinsic clearance, cynomolgus monkey; assay type: in vitro ADME; settings: hepatocytes
[12] = Hepatocyte intrinsic clearance, human; assay type: in vitro ADME; settings: hepatocytes
PK study IV/PO, mouse = assay type: in vivo
PK study IV/PO, rat = assay type: in vivo
PK study IV/PO, dog = assay type: in vivo
[13] = PK study IV/PO, cynomolgus monkey; assay type: in vivo
pFGFR2 (Y653/654) = assay: Tumor PD; assay type: in vivo, mouse; settings: SNU-16 xenograft, BALB/c nude mice, oral 5 and 10 mg/kg twice daily groups, 2 h postdose
[14] = Stability in plasma and blood; assay type: in vitro ADME; settings: plasma of all species, 5 μM, 37 °C, 18 h
MEK5 = settings: test concentration 500 nmol/L; cited from earlier work
MKNK2 = settings: test concentration 500 nmol/L; cited from earlier work
[15] = system: FGFR2 fusion-positive cholangiocarcinoma; settings: patients, across dose levels; cited from earlier work
CACO2 permeability = settings: human, Caco-2

For `C=C(C)C(=O)Nc1ccc(-c2c(-c3ccc(Oc4nccc(C)n4)c(F)c3)c3c(N)ncnc3n2C)cc1` [Lirafugratinib], the IC50 [1] was 3 nM, the “ELogD@7.4” value (ELogD) was 4.3/510 and the solubility ([2]; FaSSIF) was 49.3 µM (≈ 25.1 µg/mL). For the same compound, the solubility ([2]; SGF, simulated gastric fluid) was 540 µM (≈ 275 µg/mL), the fraction unbound at 18 h, 5 μM [3] was 0.0082 and the fraction unbound at 18 h, 5 μM [4] was 0.016. It also gave a fraction unbound at 18 h, 5 μM [5] of 0.023, a fraction unbound at 18 h, 5 μM [6] of 0.002 and a fraction unbound at 18 h, 5 μM [7] of 0.0014. It also gave a hepatocyte CLint [8] of 29 µL/min/1e6 cells, a hepatocyte CLint [9] of 30 µL/min/1e6 cells and a hepatocyte CLint [10] of 19 µL/min/1e6 cells. It also gave a hepatocyte CLint [11] of 6.5 µL/min/1e6 cells, a hepatocyte CLint [12] of under 1 µL/min/1e6 cells and a Vd (PK study IV/PO, mouse; BALB/c nude, plasma, iv) of 0.42 L/kg. It also gave a clearance (PK study IV/PO, mouse; BALB/c nude, plasma, iv) of 4.4 mL/min/kg, a half-life (PK study IV/PO, mouse; BALB/c nude, plasma, iv) of 66 min and a bioavailability (PK study IV/PO, mouse; BALB/c nude, plasma, po) of 58%. The “IV CLu mouse” value (PK study IV/PO, mouse; IV, unbound) was 538 mL/min/kg, the “IV CLu rat” value (PK study IV/PO, rat; IV, unbound) was 3,813 mL/min/kg and the Vd (PK study IV/PO, rat; Sprague-Dawley, in vivo, iv) was 0.98 L/kg. The half-life (PK study IV/PO, rat; Sprague-Dawley, in vivo, iv) was 11.4 min, the bioavailability (PK study IV/PO, rat; Sprague-Dawley, in vivo, po) was 18% and the “IV CLu dog” value (PK study IV/PO, dog; IV, unbound) was 1,200 mL/min/kg. The Vd (PK study IV/PO, dog; beagle, plasma, iv) was 1.3 L/kg, the clearance (PK study IV/PO, dog; beagle, plasma, iv) was 28 mL/min/kg and the half-life (PK study IV/PO, dog; beagle, plasma, iv) was 33 min. The bioavailability (PK study IV/PO, dog; beagle, plasma, po) was 53%, the “IV CLu cynomolgus monkey” value ([13]; IV, unbound) was 1,100 mL/min/kg and the Vd ([13]; plasma, iv) was 0.26 L/kg. The clearance ([13]; plasma, iv) was 2.2 mL/min/kg, the half-life ([13]; plasma, iv) was 84 min and the bioavailability ([13]; plasma, po) was 47%. For the same compound, the “modulation of phosphorylated FGFR2 (pFGFR2) in tumor” value (pFGFR2 (Y653/654)) was “complete suppression”, the “stability in plasma under PPB assay conditions” value [14] was “stable” and the “inhibition of MEK5 in kinome panel” value (MEK5) was 92.4%. For the same compound, the “inhibition of MKNK2 in kinome panel” value (MKNK2) was 89%, the “adverse effects occurring with treatment” value [15] was “minimal hyperphosphatemia and diarrhea” and the Papp A→B (CACO2 permeability) was 5.3 ×10⁻⁶ cm/s. It also gave a Papp B→A (CACO2 permeability) of 6.8 ×10⁻⁶ cm/s.
